For orientation: IC50 means the concentration that gives 50% inhibition. For orientation: inhibition means the drop in the measured response relative to a control, in per cent. Usually melting point stands for the temperature, or range, at which the solid turns liquid.

Where two headings read alike, the source gives them in different places.

In data set [1] the target is T1, DiHydroFolate Reductase (DHFR) (Rattus norvegicus, UniProt Q920D2).
T1 construct: from tissue; host or cells: rat liver homogenate supernatant
T1 sequence (Q920D2 1-187): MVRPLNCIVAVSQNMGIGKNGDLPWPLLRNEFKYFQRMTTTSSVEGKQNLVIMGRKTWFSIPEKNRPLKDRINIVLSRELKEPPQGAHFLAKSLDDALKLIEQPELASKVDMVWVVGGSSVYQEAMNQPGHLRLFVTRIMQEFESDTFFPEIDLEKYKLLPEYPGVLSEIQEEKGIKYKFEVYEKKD
The data set can be described thus: Inhibition of binding of [3H]methotrexate to rat liver homogenate supernatant. Conditions: for inhibition at 125 µM: read-out: [3H]mtx binding (% inhibition @ 125 μM). An outline of the steps:
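Displacement of [3H]methotrexate binding to rat liver homogenate supernatant, prepared at 4 °C in pH 6.0 phosphate buffer with 15 mM dithiothreitol. Values are mean±sem over the number of experiments shown.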

Another data set relates to sodium channel. The data set is described as follows: [14C]guanidine flux: veratrine-evoked uptake of [14C]guanidine into rat forebrain synaptosomes (primary sodium channel assay). Format: biochemical. The following applies: 30° for 2½ min. An outline of the steps: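 Synaptosomal fraction from male Wistar rat forebrain (without cerebellum/medulla), 20-25 mg wet weight/ml. Veratrine-evoked [14C]guanidine uptake at 30° for 2½ min across a compound concentration range; IC50 from concentration-effect curves, mean±sem.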

A further data set deals with hERG (Homo sapiens, UniProt Q12809). The data set can be described thus: hERG: inhibition of binding of [3H]astemizole to HEK-293 cells expressing human recombinant hERG. The following applies: for hERG % inhibition @ 10 μM: [3H]astemizole binding; for inhibition at 10 µM: human, probe [3H]astemizole. On the technique in general: The hERG channel carries a current that helps repolarise heart muscle cells.
Chain of hERG (Q12809 whole entry): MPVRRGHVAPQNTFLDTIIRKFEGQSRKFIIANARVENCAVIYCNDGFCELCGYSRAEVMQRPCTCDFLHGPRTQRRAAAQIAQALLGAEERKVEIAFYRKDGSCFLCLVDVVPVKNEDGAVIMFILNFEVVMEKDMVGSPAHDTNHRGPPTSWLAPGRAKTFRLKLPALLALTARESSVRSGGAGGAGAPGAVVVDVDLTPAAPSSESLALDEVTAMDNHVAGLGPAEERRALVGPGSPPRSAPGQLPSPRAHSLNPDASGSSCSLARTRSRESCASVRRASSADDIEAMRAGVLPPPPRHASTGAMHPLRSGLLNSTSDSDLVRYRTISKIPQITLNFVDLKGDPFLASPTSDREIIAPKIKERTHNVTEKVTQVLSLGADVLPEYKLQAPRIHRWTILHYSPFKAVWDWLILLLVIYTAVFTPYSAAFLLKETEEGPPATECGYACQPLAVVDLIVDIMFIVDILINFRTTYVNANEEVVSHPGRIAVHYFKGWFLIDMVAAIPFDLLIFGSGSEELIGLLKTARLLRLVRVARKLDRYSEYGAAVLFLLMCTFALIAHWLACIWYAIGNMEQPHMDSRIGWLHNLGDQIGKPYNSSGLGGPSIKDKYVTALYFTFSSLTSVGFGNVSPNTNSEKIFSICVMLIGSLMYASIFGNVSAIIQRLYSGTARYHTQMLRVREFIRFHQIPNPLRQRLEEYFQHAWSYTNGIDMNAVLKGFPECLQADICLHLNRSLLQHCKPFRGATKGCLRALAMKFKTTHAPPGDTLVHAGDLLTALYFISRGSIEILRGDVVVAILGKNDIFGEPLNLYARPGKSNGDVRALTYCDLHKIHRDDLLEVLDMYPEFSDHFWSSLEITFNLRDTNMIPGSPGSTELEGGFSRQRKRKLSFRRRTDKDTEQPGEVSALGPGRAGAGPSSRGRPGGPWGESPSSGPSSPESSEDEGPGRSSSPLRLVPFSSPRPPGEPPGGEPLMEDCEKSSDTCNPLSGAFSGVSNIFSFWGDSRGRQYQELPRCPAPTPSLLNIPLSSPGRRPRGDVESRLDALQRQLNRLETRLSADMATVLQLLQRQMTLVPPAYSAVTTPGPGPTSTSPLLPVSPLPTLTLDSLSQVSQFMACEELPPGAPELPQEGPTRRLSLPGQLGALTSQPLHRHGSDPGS

A further data set concerns Sodium Channel, Site 2. Format: binding, Wistar Rat. The following applies: for IC50: read-out: [3H]BTX-B binding Extrapolated IC50.
[2] abbreviates: read-out: hERG IC50 (μM) (extrapolated from 10 μM inh'n), extrapolated assuming binding slope 1.0.

As for “3,5-Diamino-6-[1-(2,5-dimethoxynaphthyl)-1,2,4-triazine [CEN-157]”, the “[3H]mtx binding (% inhibition @ 125 μM)” value in data set [1] (125 μM) was −1%. Moreover, the half-maximal inhibitory concentration (IC50) is 204 µM with sodium channel and 157 µM on hERG (setting [2]). Further, the “hERG % inhibition @ 10 μM” value on hERG is 6%.
In turn, `Nc1ncc(-c2cccc(Cl)c2Cl)c(N)n1` [CEN-41, 2,4-Diamino-5-(2,3-dichlorophenyl)pyrimidine] returned a melting point of 289 to 291 °C. Moreover, in data set [1] (125 μM), the inhibition at 125 µM came to 76%. Half-maximal inhibition in the data set with sodium channel (IC50) was put at 60.3 µM. In addition, at hERG, the IC50 was > 200 µM and the inhibition at 10 µM was -3%.
For the compound `CCn1nc(-c2cccs2)c(N)nc1=N` [CEN-62, 5(3)-Amino-6-(2-thienyl)-2,3(2,5)-dihydro-3(5)-imino-2-ethyl-1,2,4-triazine methanesulfonate], in data set [1] (125 μM), the inhibition at 125 µM stood at 46%. Also, the IC50 was 141 µM in the data set on sodium channel and > 200 µM at hERG. The inhibition at 10 µM at hERG was -13%.
On the same counts, the results for `CCn1nc(-c2ccc3ccccc3c2)c(N)nc1=N` [CEN-75, 5(3)-Amino-6-(2-naphthyl)-2,3(2,5)-dihydro-3(5)-imino-2-ethyl-1,2,4-triazine methanesulfonate] are 5%, 49 µM, 3 µM and 78%.
For `Cn1nc(-c2ccc3ccccc3c2)c(N)nc1=N` [CEN-76, 5(3)-Amino-6-(2-naphthyl)-2,3(2,5)-dihydro-3(5)-imino-2-methyl-1,2,4-triazine methanesulfonate], in that order: 6%, 77.6 µM, 4 µM and 74%.
For the compound `CCn1nc(-c2cccc3ccccc23)c(N)nc1=N` [CEN-77, 5(3)-Amino-6-(1-naphthyl)-2,3(2,5)-dihydro-3(5)-imino-2-ethyl-1,2,4-triazine], the melting point lay in the range of 191 to 193 °C. Moreover, the inhibition at 125 µM in data set [1] (125 μM) is -1%. For the same compound, the half-maximal inhibitory concentration (IC50) in the data set with sodium channel is 14.5 µM. On hERG, the IC50 was 18 µM and the inhibition at 10 µM was 36%.
As for `Cn1nc(-c2cccc3ccccc23)c(N)nc1=N` [CEN-78, 5(3)-Amino-6-(1-naphthyl)-2,3(2,5)-dihydro-3(5)-imino-2-methyl-1,2,4-triazine], the melting point lay in the range of 248 to 250 °C. Also, the inhibition at 125 µM in data set [1] (125 μM) is 9%. The compound also came in with a concentration for half-maximal inhibition (IC50) in the data set with sodium channel of 102 µM. Besides, at hERG, the IC50 is 32 µM and the inhibition at 10 µM was determined as 24%.
For `Cn1nc(-c2cc(Cl)sc2Cl)c(N)nc1=N` [CEN-80, 5(3)-Amino-6-[3-(2,5-dichlorothienyl)]-2,3(2,5)-dihydro-3(5)-imino-2-methyl-1,2,4-triazine], in that order: 286 to 288 °C, -1%, 123 µM, 61 µM and 14%.
`Cn1nc(-c2ccc3c(c2)OC(F)(F)O3)c(N)nc1=N` [CEN-81, 5(3)-Amino-6-[5-(2,2-difluorobenzodioxolo)]-dihydro-3(5)-imino-2-methyl-1,2,4-triazine] came in with a melting point of 297 to 298 °C. Besides, in data set [1] (125 μM), the inhibition at 125 µM is -2%. The compound also returned an IC50 with sodium channel of 251 µM. On hERG, the IC50 was determined as 49 µM and the inhibition at 10 µM came out at 17%.
For `Nc1nnc(-c2ccc(Oc3ccccc3)cc2)c(N)n1` [CEN-93, 3,5-Diamino-6-(4-phenoxphenyl)-1,2,4-triazine], in that order: 266 to 267 °C, 4%, 63.1 µM, 19 µM and 35%.
Consider `CS(=O)(=O)O.Cn1nc(C23CC4CC(CC(C4)C2)C3)c(N)nc1=N` [CEN-100, 6-Adamantyl-5(3)-amino-2,3(2,5)-dihydro-3(5)-imino-2-methyl-1,2,4-triazine methanesulfonate], for which, in data set [1] (125 μM), the “[3H]mtx binding (% inhibition @ 125 μM)” value is on record as 10%. The concentration for half-maximal inhibition (IC50) in the data set with sodium channel was 77.6 µM; at hERG (setting [2]), 23 µM. In addition, on hERG, the “hERG % inhibition @ 10 μM” value turned out to be 30%.
Turning to `Cn1nc(-c2ccccc2Oc2ccccc2)c(N)nc1=N` [CEN-105, 5(3)-Amino-6-(2-phenoxyphenyl)-2,3(2,5)-dihydro-3(5)-imino-2-methyl-1,2,4-triazine], the melting point is 164 to 166 °C. For the same compound, the inhibition at 125 µM in data set [1] (125 μM) amounted to 86%. In the data set with sodium channel, this compound returned an IC50 of 100 µM. Also, on hERG, the IC50 worked out at 19 µM and the inhibition at 10 µM was 35%.
As to `Cn1nc(-c2cccc3c2CCCC3)c(N)nc1=N` [CEN-120, 5(3)-Amino-6-[1-(5,6,7,8-tetrahydronaphthyl)]-2,3(2,5)-dihydro-3(5)-imino-2-methyl-1,2,4-triazine methanesulfonate], the inhibition at 125 µM in data set [1] (125 μM) was determined as 18%. Besides, in the data set on sodium channel, the half-maximal inhibitory concentration (IC50) turned out to be 195 µM. Besides, on hERG, the IC50 is 157 µM and the inhibition at 10 µM stood at 6%.
`Cc1ccc(-c2nnc(N)nc2-c2ccc(C)cc2)cc1` [CEN-126, 3-Amino-5,6-bis(4-methylphenyl)-1,2,4-triazine] registered a melting point of 134 to 136 °C. The inhibition at 125 µM in data set [1] (125 μM) was -12%. The compound further displayed an IC50 in the data set on sodium channel of 58.9 µM. In addition, on hERG, the IC50 came to 3 µM and the inhibition at 10 µM is 79%.
On the same counts, the results for `COc1ccc(-c2nnc(N)nc2-c2ccc(OC)cc2)cc1` [CEN-127, 3-Amino-5,6-bis(4-methoxylphenyl)-1,2,4-triazine] are 179 to 181 °C, -24%, 85.1 µM, > 200 µM and 2%.
For `Nc1nnc2c3ccccc3c3ccccc3c2n1` [CEN-128], the inhibition at 125 µM in data set [1] is 0%. The same compound yielded a 50% inhibitory concentration (IC50) in the data set with sodium channel of 251 µM. At hERG, the IC50 stood at 53 µM and the inhibition at 10 µM is 16%.
`Nc1nnc(-c2cccc3c2-c2ccccc2C3)c(N)n1` [CEN-129] came in with a melting point of 240 to 242 °C. Also, the inhibition at 125 µM in data set [1] (125 μM) is -3%. Moreover, the concentration for half-maximal inhibition (IC50) with sodium channel is 190 µM. Also, at hERG, the IC50 turned out to be 133 µM and the inhibition at 10 µM is 7%.
Consider `Cn1nc(-c2cccc(-c3ccccc3)c2)c(N)nc1=N` [CEN-161, 5(3)-Amino-6-(3-biphenyl)-2,3(2,5)-dihydro-3(5)-imino-2-methyl-1,2,4-triazine methanesulfonate], for which the inhibition at 125 µM in data set [1] (125 μM) is -7%. The IC50 stood at 16 µM in the data set with sodium channel and 1 µM at hERG. On hERG, the inhibition at 10 µM came out at 88%.
With `COc1ccc2cc(C(C)c3nnc(N)nc3N)ccc2c1` (stereo not drawn) [CEN-165, 3,5-Diamino-6-[1-(6-methoxynaphthalene)ethy)-1,2,4-triazine], the “[3H]mtx binding (% inhibition @ 125 μM)” value in data set [1] (125 μM) is listed as −4%. Moreover, the IC50 is 372 µM in the data set with sodium channel and 34 µM on hERG (setting [2]). In addition, on hERG, the “hERG % inhibition @ 10 μM” value was determined as 23%.
For `Nc1nnc(-c2ccc(Cl)nc2Cl)c(N)n1` [CEN-174, 3,5-Diamino-6-[3-(2,6-dichloropyidyl)]-1,2,4-triazine], the inhibition at 125 µM in data set [1] (125 μM) worked out at 4%. The IC50 in the data set on sodium channel amounted to 589 µM. At hERG, the half-inhibitory concentration (IC50) came to 101 µM and the inhibition at 10 µM worked out at 9%.
Compound `Cn1nc(-c2cccc(C(F)(F)F)c2Cl)c(N)nc1=N` [CEN-177, 5(3)-Amino-6-(2-chloro-3-trifluoromethyphenyl)-2,3(2,5)-dihydro-3(5)-imino-2-methyl-1,2,4-triazine] gave a melting point of 205 to 207 °C. In addition, in data set [1] (125 μM), the inhibition at 125 µM was found to be 16%. Besides, the IC50 in the data set on sodium channel was 14 µM. In addition, at hERG, the 50% inhibitory concentration (IC50) is 35 µM and the inhibition at 10 µM is 22%.
On the same counts, the results for `Nc1nnc(C2c3ccccc3Oc3ccccc32)c(N)n1` [CEN-182, 3,5-Diamino-6-(9-xanthyl)-1,2,4-triazine] are 159 to 161 °C, 6%, 214 µM, 90 µM and 10%.
Consider `CCn1nc(-c2cc(C(C)(C)C)cc(C(C)(C)C)c2)c(N)nc1=N` [CEN-189, 5(3)-Amino-6-(3,5 bis-tert-butylphenyl)-2,3(2,5)-dihydro-3(5)-imino-2-ethyl-1,2,4-triazine methanesulphonate], for which the inhibition at 125 µM in data set [1] (125 μM) came to 2%. In addition, the 50% inhibitory concentration (IC50) came to 468 µM in the data set with sodium channel and 90 µM on hERG. Further, on hERG, the inhibition at 10 µM is 10%.
Turning to `Cc1ccc(S(=O)(=O)O)cc1.Nc1nnc(-c2cc(C(F)(F)F)ccc2C(F)(F)F)c(N)n1` [CEN-198, 3,5-Diamino-6-[2,5-bis(trifluoromethyl)phenyl]-1,2,4-triazine tosylate], in the data set with Sodium Channel, Site 2, the “[3H]BTX-B binding % inhibition (@ 10 μM)” value is recorded as 23% and the IC50 was 34 µM.
For `Nc1nnc(-c2cccc(C(F)(F)F)c2Cl)c(N)n1` [CEN-199, 3,5-Diamino-6-(2-chloro-3-trifluoromethylphenyl)-1,2,4-triazine], in that order: 29% and 25 µM.

(Values after patent US8691818B2, “Cyclic triazo and diazo sodium channel blockers” (University Of Greenwich, priority 2008, dated 2014).)
